From US20060194259A1, “Method for isolating an allosteric effector of a receptor” (priority 2002, published 2006)

How the values were obtained:
receptor EGFP-NK2R [1] = biological target: T1, receptor EGFP-NK2R (Homo sapiens, UniProt P21452); experiment: cAMP production caused by NKA in HEK 293 cells expressing EGFP-NK2R; assay type: cell-based
T1 sequence (P21452 1-398): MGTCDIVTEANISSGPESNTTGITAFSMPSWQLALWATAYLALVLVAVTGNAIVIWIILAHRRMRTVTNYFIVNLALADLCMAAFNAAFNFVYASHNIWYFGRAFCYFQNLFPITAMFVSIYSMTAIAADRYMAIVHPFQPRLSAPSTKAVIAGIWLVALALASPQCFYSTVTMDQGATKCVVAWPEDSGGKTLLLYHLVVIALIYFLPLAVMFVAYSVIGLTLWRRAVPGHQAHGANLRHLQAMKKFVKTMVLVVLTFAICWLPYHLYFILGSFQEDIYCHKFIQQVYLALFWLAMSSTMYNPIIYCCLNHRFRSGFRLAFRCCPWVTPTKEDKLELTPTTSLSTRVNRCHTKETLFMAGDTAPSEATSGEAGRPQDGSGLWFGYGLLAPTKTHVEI
Protocol: (§1) 30 mm 6-well cell-culture dishes are treated with collagen then seeded with 50,000 cells expressing the receptor EGFP-NK2R. […] The quantity of cAMP produced (expressed in pmoles/well) is determined according to a radioimmunological process described in Gicquiaux et al. (2002).

receptor EGFP-NK2R [2] = biological target: T2, receptor EGFP-NK2R (UniProt P16610); experiment: Dissociation of NKA4-10 TR7 from EGFP-NK2R by fluorescence energy transfer; assay type: binding; set-up: % al (max): maximum value observed for the increase in amplitude of the rapid dissociation rate; ns = n; other: 20 nM of NK; % al (at 10 μM); other: compou; fused on or other part: EGFP fused to the receptor as FRET donor
T2 sequence (P16610 1-390): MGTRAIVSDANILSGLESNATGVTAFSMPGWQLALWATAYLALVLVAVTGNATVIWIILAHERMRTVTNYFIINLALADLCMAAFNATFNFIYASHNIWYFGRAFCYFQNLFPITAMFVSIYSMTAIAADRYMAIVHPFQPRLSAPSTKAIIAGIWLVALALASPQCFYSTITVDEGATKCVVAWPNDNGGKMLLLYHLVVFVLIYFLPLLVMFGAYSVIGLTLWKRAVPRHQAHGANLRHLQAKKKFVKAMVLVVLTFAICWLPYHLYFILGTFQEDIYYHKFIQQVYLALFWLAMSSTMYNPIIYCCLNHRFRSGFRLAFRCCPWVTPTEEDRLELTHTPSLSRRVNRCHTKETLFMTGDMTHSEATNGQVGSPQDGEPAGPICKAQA
Protocol: The x-axis represents time in seconds and the y-axis represents fluorescence.
In the presence of 10 μM of 805, an acceleration of the dissociation is observed characterized by a modification of the amplitudes of the rapid (88%) and slow (12%) dissociation stages.

receptor EGFP-NK2R [3] = biological target: T2, receptor EGFP-NK2R; experiment: cAMP production caused by NKA in HEK 293 cells expressing EGFP-NK2R; assay type: cell-based; set-up: 805 at 10 or 50 μM; NKA alone; fused on or other part: EGFP fused to the receptor; conditions: read-out: inhibition constant KI of the maximum response of cAMP induced by the NKA; FIG. 9C
Protocol: as §1

## N#CCN(Cc1ccccc1)Cc1ccc2ccccc2c1 [compound 805, [benzyl(2-naphthylmethyl)amino]acetonitrile]
Receptor EGFP-NK2R [1]; [805]=10 μM
  Rmax, maximum cAMP response to NKA relative to control: 0.7
Receptor EGFP-NK2R [1]; [805]=50 μM
  Rmax, maximum cAMP response to NKA relative to control: 0.3
Receptor EGFP-NK2R [2]; 10 μM of 805, 10° C., 42% without 805
  amplitude of the slow dissociation of NKA4-10 TR7: 12%
Receptor EGFP-NK2R [2]; 805 at 100 μM, approximately 40% in the absence of 805
  amplitude of the rapid dissociation of NKA4-10 TR7: up to 90%
Receptor EGFP-NK2R [2]; read-out: concentration which causes a 50% increase in the amplitude of the rapid dissociation of NKA4-10 TR7 (apparent affinity), 10° C.
  EC50: ~20 µM
Receptor EGFP-NK2R [3]
  Ki: ~6 µM
